Structures can show the parent of a compound that is named as a salt.
Columns and labels:
[1] = cited from earlier work
[2] = system: patients with functional diarrhea; test: Clinical study, randomized double-blind placebo-controlled forced dose escalation, 12 weeks; assay type: in vivo, human
Description: While functional diarrhea is a condition dominated by altered lower bowel function associated with chronic diarrhea, it is also associated with upper gastrointestinal related symptoms such as nausea. For instance, patients suffering from similar lower bowel functional conditions such as IBS ([…]) have a reported incidence of nausea of 32%-other conditions also have relatively high baseline incidences of nausea, i.e., functional dyspepsia 39%, oesophagitis 17%, duodenal ulcer 34%, gastric ulcer 39%, gallstone disease 28%, alcohol related dyspepsia 37%, and gastric cancer 48%. […], ABC of the Upper Gastrointestinal Tract Anorexia, Nausea, Vomiting and Pain, 323 BMJ (8 Dec. 2001). […] Eighty-two patients (both male and female) meeting ROME II criteria (modified) for Functional Diarrhea were randomized in the study. Using an intent-to-treat analysis and the entire 12 weeks of dose-escalation therapy, the incidence of nausea in the placebo group was 20%, indicating a relatively high baseline of nausea for that condition.

[3] = Pharmacokinetics of oral conventional formulation in adults (Young et al.); assay type: in vivo, human
Procedure: Bear et al., Am. J. Physiol., 186, 180-86 (1956). […] Young et al., Clinical Therapeutics, 23(4) (2001). […] The typical dose used for treating hypertensive subjects is about 25 mg/day, and is dosed using conventional formulations.

[4] = 2.5 mg dose, conventional formulation, adults
[5] = 7.5 mg dose, conventional formulation, adults
[6] = expected from Young et al. data, conventional formulation

expected peak plasma concentration ([3]; about 25 mg/day dose for hypertensive subjects, conventional formulations)	24 hour plasma concentration level as share of peak plasma concentration [3, 6]	time for which about 50% of the peak plasma concentration is maintained [3, 6]	Structure (SMILES)	maximum plasma concentration (Cmax) [1, 4]	time to achieve the highest plasma concentration (Tmax) [1, 4] [h]	Cmax [1, 5] [µg/mL]	Tmax [1, 5] [h]	absorption from the gastrointestinal tract ([1]; dosed orally, conventional formulations (Bear et al.))	changes in blood pressure ([2]; FIGS. 1 and 2, over the course of the study)	incidence of nausea ([2]; intent-to-treat, entire 12 weeks, once daily 2 then 4 then 6 mg/day, placebo 20%) [%]
			CNC1(C)C2CCC(C2)C1(C)C (stereo not shown) [mecamylamine hydrochloride, N-2,3,3-tetramethylbicyclo[2.2.1]heptan-2-amine hydrochloride]	about 7.89 ng/mL	3.11	0.02368	3.04	nearly completely and rapidly absorbed		
about 78.9 ng/mL	less than 25%	about 14 hours	CNC1(C)C2CCC(C2)C1(C)C (racemic) [mecamylamine]						no clinically significant changes	9
